Assay results published in publication PMC12794274, “Therapeutic potential of Sheng-Xian-Tang in doxorubicin-induced chronic heart failure by regulation of phenylalanine metabolism disruption” (Chinese Medicine, 2026).

What was measured:
AML12 cells = format: cell-based, mouse
Procedure: (§1) Mouse hepatocellular cell lines (AML12), purchased from the Shanghai Cell Bank of Chinese Academy of Sciences (Shanghai, China), were cultured in Dulbecco’s Modified Eagle Medium (DMEM) supplemented with 10% fetal bovine serum (FBS) and 2 mM L-glutamine and 1% pyruvate and maintained at 37 °C in a […], 5% CO2 incubator. Cells were seeded at a density of 5 × 10^5 cells/well in 6-well plates. […] Cells’ survival rate was detected by Cell Counting Kit-8 (CCK8) Reagents (Thermo Scientific, Singapore).

Rat body weight = format: in vivo; details: DOX group vs CON group, experiment I
Procedure: Experiment I, 48 rats were randomly divided into six groups: (1) the CON group; (2) the DOX group; (3) the DOX + enalapril (ENP, positive control, 1.8 mg/kg) group; (4) the DOX + SXT at low dose group (4 g/kg); (5) the DOX + SXT at middle dose group (8 g/kg); and […] the DOX + SXT at high dose group (16 g/kg). Except those rats in the CON group, the remaining rats received DOX at a 2.5 mg/kg per injection to a cumulative dose of 15 mg/kg. The dose of SXT for the low-dose group was set at 4 g/kg, based on the minimum human clinical daily dose (48.5 g, Table S2) converted to an equivalent rat dose using body surface area normalization (48.5 g/70 kg × 6.3 ≈ 4.4 g/kg, rounded to 4 g/kg). To evaluate a clear dose–response relationship, the medium and high doses were established at 8 g/kg and 16 g/kg, respectively, corresponding to 2 fold and 4 fold the low dose. […] Heart function was monitored by echocardiography analysis at day 39, and the CHF model was considered to be successfully established when the left ventricular ejection fraction (LVEF%) values were reduced to 50%. […]

phenylalanine metabolism = assay: Phenylalanine and tyrosine levels in rat serum, liver and heart tissues (LC/MS); format: in vivo; details: DOX-induced CHF rats, day 39
Procedure: Phenylalanine and tyrosine in the different rat bio-samples were analyzed by LC/MS using an Agilent 1290 Ultra high-performance liquid chromatography (UHPLC) and an Agilent 6460 triple-quadrupole tandem mass spectrometer (QQQ-MS) (Agilent Inc, USA). Data were acquired by using an Agilent Zorbax SB-C18 column (3.0 × 150 mm, 5 μm) as described previously.

[1] = tested on: PAH activity in AML12 cells; format: cell-based
Procedure: (§2) Serum biochemical parameters including brain natriuretic peptide (BNP), creatine kinase (CK), lactate dehydrogenase (LDH), alanine aminotransferase (ALT), and aspartate aminotransferase (AST) were measured using commercial ELISA kits (Nanjing Jiancheng Bioengineering Institute, Nanjing, China) according to the manufacturer’s instructions. Superoxide dismutase (SOD), and malondialdehyde (MDA) levels in liver and heart tissues were measured using assay kits from Aifang Biotechnology (Changsha, China). Phenylalanine and tyrosine concentrations in the cell were determined using an ELISA kit from Abmart (Shanghai, China).
as §1

[2] = tested on: phenylalanine hydroxylase (PAH); assay: PAH expression in liver and heart (western blotting, immunofluorescence); format: in vivo, rat
Procedure: Immunofluorescence staining was performed on tissue sections to detect phenylalanine hydroxylase (PAH), prostaglandin-endoperoxide synthase 2 (PTGS2), and reactive oxygen species (ROS). Primary antibodies against PAH and PTGS2 were used, while ROS was detected using the DCFH-DA probe. Nuclei were counterstained with DAPI. Images were captured using a fluorescence microscope.
Protein was extracted from liver or heart tissue samples (30 mg) using lysis buffer. Total protein concentration was determined using a BCA protein assay kit (Thermo Fisher Scientific, USA). Equal amounts of protein from each sample were separated on 10–12% SDS-PAGE gels and transferred to PVDF membranes. Membranes were blocked with quick blocking buffer for 30 min, then incubated with anti-PAH primary antibody (1:1000 dilution) overnight at 4 °C. After washing, membranes were incubated with a secondary antibody for 1 h at 37 °C. Protein bands were visualized using an Odyssey infrared imaging system (JS-1070, Shanghai Peiqing Science & Technology Co., Ltd, China). Band intensities were quantified using ImageJ software.

[3] = tested on: cardiac tissues of DOX-induced CHF rats; assay: Heart histopathology (H&E, Masson) and TUNEL apoptosis detection; format: in vivo, rat; details: DOX group
Procedure: Cardiac tissues were fixed in 4% paraformaldehyde, embedded in paraffin, and sectioned at 4–5 μm thickness. Hematoxylin and eosin (H&E) staining was performed to assess histopathological changes, while Masson’s trichrome staining was used to evaluate cardiac fibrosis. Apoptosis in cardiac tissues was detected using a TUNEL assay kit (C1088, Beyotime, Shanghai, China).

DOX-induced CHF rats = assay: Serum biochemical parameters (BNP, CK, LDH, ALT, AST) by ELISA kits; format: in vivo, rat; details: DOX group, experiment I
Procedure: as §2, with “manufacturer's” for “manufacturer’s”, “Aifang” left out

[4] = DOX vs CON group, experiment I, p < 0.001
[5] = experiment II, DOX vs CON, co-treatments vs DOX

COc1cccc2c1C(=O)c1c(O)c3c(c(O)c1C2=O)C[C@@](O)(C(=O)CO)C[C@@H]3O[C@H]1C[C@H](N)[C@H](O)[C@H](C)O1 [DOX, Doxorubicin]
MDA levels (AML12 cells): increase
SOD activity (AML12 cells): significant reduction
body weight (Rat body weight): significant reduction
phenylalanine levels in hepatic and cardiac tissues and plasma (phenylalanine metabolism): significant elevation
phenylalanine levels in AML12 cells [1]: significant increases
phenylalanine metabolism (Phe level, Phe/Tyr ratio) ([1]; AML12 cells, DOX vs CON, neomangiferin vs DOX, dose-dependent): significantly suppressed
ectopic heart PAH expression [2, 4]: significantly increased
liver PAH expression [2, 4]: significantly decreased
PAH expression in heart tissue [2, 5]: significantly raising
PAH expression in liver tissue [2, 5]: substantially lowered
H&E and Masson's trichrome staining of cardiac tissue [3]: inflammatory infiltration and increased collagen deposition
serum ALT and AST levels (DOX-induced CHF rats): increased
